Test results reported in patent US10835605B2, “Preparations of poly(lactic-co-glycolic acid)/polydopamine core/shell hybrid nanoparticle for photothermal applications” (UNIVERSITY OF SOUTH CAROLINA, priority 2015, dated 2020).

How the values were obtained:
UMSCC 22A cells [1] = assay: In vitro cytotoxicity (MTT cell proliferation assay) with or without NIR irradiation; type: cell-based; conditions: FIG. 9
Procedure: The cytotoxicity of nanoparticles was evaluated by MTT assay. UMSCC 22A cells were seeded in 96-well plate (20,000 cells/well) for 24 h prior to the study. Following, either free DOX or DOX@PLGA/PD-PEG nanoparticles with DOX concentration equal to 2, 5 and 10 μg/mL were added. For comparison, PLGA/PD-PEG (no DOX encapsulation) nanoparticles were also added. The cells were then incubated 3 h in 95/5% air/CO2 at 37° C. followed by irradiation under a 808 nm laser for 10 min. After that, all wells were washed 2 times and replaced with fresh culture medium and kept incubation for another 24 h. Finally, MTT reagent (100 μL, 10%(w/w) in medium) was added and incubated for 4h, following the addition of MTT stop solution and the measurement of the optical density of the medium using a microplate reader (ELX808, Bio-Tech Instrument, Inc.) at λ=595 nm.

UMSCC 22A cells [2] = assay: Cellular uptake by confocal microscopy and flow cytometry; type: cell-based; conditions: flow cytometry, 3 h incubation, FIG. 8
Procedure: UMSCC 22A cells (300,000cells/well) were seeded in 6-well plates overnight. After that, DOX, DOX@PLGA/PD-PEG, and DOX@PLGA/PD-C nanoparticles were added at the DOX equivalent concentration of 1 μg/m L. In order to investigate the effect of EGFR on the cellular uptake of DOX@PLGA/PD-C nanoparticle, cells were pretreated with free anti-EGFR antibody (200 μg/mL) 30 min before adding DOX@PLGA/PD-C nanoparticles. The plate was incubated at 37° C. for 3 h. Then cells were washed, trypsinized and resuspended in PBS. DOX-positive cell population was quantified at Ex=488 nm, Em=585 nm using flow cytometry (BD Accuri C6, BD Biosciences).

UMSCC 22A cells [3] = assay: Tumor growth inhibitory assay, subcutaneous head and neck cancer mouse model; type: in vivo, female Balb/c nude mice
Procedure: UMSCC 22A cells (3×10^6 cells in 100 μL DMEM medium) were inoculated subcutaneously in female Balb/c nude mice (8-10 week old, ˜20 g, Jackson Laboratory). The tumor volume was measured by a digital caliper and calculated according to the following formula: Tumor volume=tumor length)×(tumor width)^2/2. […] For the control group, PBS was injected. Mice were exposed to an 808 nm laser irradiation (2.83 W/cm^2) 3 h post injection for 10 min. The temperature of the mice during the irradiation was recorded by the FLIR thermal camera. The tumor volumes (V) of the mice were measured every other day for 24 days. The relative tumor volume expressed as V/V0 (V0 was the tumor volume when the treatment was initiated) was used to represent the tumor size change during the whole treatment process. After 24 days, the mice were sacrificed and the blood, tumor, liver, heart, lung, kidneys, and spleen were collected for further analysis. All organs were firstly fixed in 10% neutral buffered formalin for 48 h and then washed with PBS and finally kept in 70% ethanol at 4° C.

[4] = TEM analysis of heart tissue (cardiotoxicity); type: in vivo, mice; conditions: hearts collected after 24 days; DOX@PLGA/PD-C coupled with NIR irradiation
Procedure: To study the cardiotoxicity of DOX, the hearts of the mice were analyzed by TEM. The formalin fixed samples were further fixed with 1% perosmic oxide for 2 h at 4° C., washed with water and then dehydrated in a series of alcohol solutions, embedded, and sliced with the thickness between 50 and 70 nm. TEM analysis was performed on Hitachi H8000 operating at 200 kV.

COc1cccc2c1C(=O)c1c(O)c3c(c(O)c1C2=O)C[C@@](O)(C(=O)CO)C[C@@H]3O[C@H]1C[C@H](N)[C@H](O)[C@H](C)O1 [free DOX, Doxorubicin]
cell killing effect versus other treatments (UMSCC 22A cells [1]): higher cell killing effect than other treatments except at 10 μM dose | speed of entry into cancer cells (UMSCC 22A cells [2]): entered cancer cells faster than the DOX@PLGA/PD-C nanoparticles | tumor recurrence / regrowth (UMSCC 22A cells [3]; 24-day observation): gradually bounced back 10 days post treatment | tumor response after treatment (UMSCC 22A cells [3]; intratumoral, 40 μL, DOX equivalent 15 μg/mL, DOX@PLGA/PD-C coupled with NIR irradiation): only slightly reduced tumor size | H&E staining of tumor tissue (UMSCC 22A cells [3]; tumors collected after 24 days): kept the characteristics of squamous cell carcinoma | heart tissue structure (mitochondria) by TEM [4]: significantly compromised
